Assay results taken from ChEMBL document CHEMBL3045004, “Design, synthesis and in vitro antibacterial and antifungal activities of some novel spiro[azetidine-2,3-indole]-2,4(1H)-dione” (2011).
Converted amounts (≈) assume the structure as drawn. The source made the active and inactive calls. No cut-off for these calls is given here.

Tests used:
[1] = test system: Candida albicans; assay: Antifungal activity against Candida albicans MTCC-183 after 3 to 4 days by serial plate dilution method; type: functional; conditions: for MIC: Candida albicans, MTCC-183
[2] = test system: Aspergillus niger; assay: Antifungal activity against Aspergillus niger MTCC-343 after 3 to 4 days by serial plate dilution method; type: functional; conditions: for MIC: Aspergillus niger, MTCC-343
[3] = test system: Staphylococcus aureus; assay: Antibacterial activity against Staphylococcus aureus MTCC-96 after 24 hr by disk-diffusion method; type: functional
[4] = test system: Pseudomonas aeruginosa; assay: Antibacterial activity against Pseudomonas aeruginosa MTCC-647 after 24 hr by disk-diffusion method; type: functional
[5] = test system: Escherichia coli; assay: Antibacterial activity against Escherichia coli MTCC-521 after 24 hr by disk diffusion method; type: functional
[6] = test system: Aspergillus niger; assay: Antifungal activity against Aspergillus niger MTCC-343 at >100 ug/ml after 3 to 4 days by serial plate dilution method; type: functional, organism-based
[7] = test system: Candida albicans; assay: Antifungal activity against Candida albicans MTCC-183 at >100 ug/ml after 3 to 4 days by serial plate dilution method; type: functional, organism-based
[8] = Staphylococcus aureus, MTCC-96, 24 h
[9] = Pseudomonas aeruginosa, MTCC-647, 24 h
[10] = Escherichia coli, MTCC-521, 24 h

Compound | inhibition zone (IZ) [1] [mm] | MIC [1] [µg/mL] | inhibition zone (IZ) [2] [mm] | MIC [2] [µg/mL] | diameter of the inhibition zone (DIZ) [3] [mm] | MIC [3, 8] [µg/mL] | diameter of the inhibition zone (DIZ) [4] [mm] | MIC [4, 9] [µg/mL] | diameter of the inhibition zone (DIZ) [5] [mm] | MIC [5, 10] [µg/mL] | MIC [3] [µg/mL] | MIC [4] [µg/mL] | MIC [5] [µg/mL] | Activity [6] | Activity [7]
OC(Cn1cncn1)(Cn1cncn1)c1ccc(F)cc1F [FLUCONAZOLE] | 27 | 6.25 (≈ 20.4 µM) | 26 | 6.25 (≈ 20.4 µM) | – | – | – | – | – | – | – | – | – | – | –
CN[C@@H]1[C@H](O[C@H]2[C@H](O[C@H]3[C@H](O)[C@@H](O)[C@H](N=C(N)N)[C@@H](O)[C@@H]3N=C(N)N)O[C@@H](C)[C@]2(O)C=O)O[C@@H](CO)[C@H](O)[C@H]1O [STREPTOMYCIN] | – | – | – | – | 31 | 6.25 (≈ 10.7 µM) | 31 | 6.25 (≈ 10.7 µM) | 26 | 6.25 (≈ 10.7 µM) | – | – | – | – | –
O=C1C(Cl)C2(C(=O)Nc3c(Br)cc(Br)cc32)N1c1ccc([N+](=O)[O-])cc1 (stereo unspecified) | 26 | 6.25 (≈ 12.5 µM) | 23 | 6.25 (≈ 12.5 µM) | 28 | 6.25 (≈ 12.5 µM) | 28 | 6.25 (≈ 12.5 µM) | 24 | 6.25 (≈ 12.5 µM) | – | – | – | – | –
CCC(C)n1ncn(-c2ccc(N3CCN(c4ccc(OCC5COC(Cn6cncn6)(c6ccc(Cl)cc6Cl)O5)cc4)CC3)cc2)c1=O (stereo unspecified) [ITRACONAZOLE] | 27 | 6.25 (≈ 8.86 µM) | 25 | 6.25 (≈ 8.86 µM) | – | – | – | – | – | – | – | – | – | – | –
GENTAMICIN | – | – | – | – | – | – | – | – | – | – | 6.25 | 6.25 | 6.25 | – | –
Cc1ccccc1N1C(=O)C(Cl)C12C(=O)Nc1ccccc12 (stereo unspecified) | 11 | 25 (≈ 79.9 µM) | 24 | 6.25 (≈ 20 µM) | 22 | 12.5 (≈ 40 µM) | 17 | 25 (≈ 79.9 µM) | 19 | 25 (≈ 79.9 µM) | – | – | – | – | –
O=C1C(Cl)C2(C(=O)Nc3ccccc32)N1c1ccccc1 (stereo unspecified) | 23 | 6.25 (≈ 20.9 µM) | 22 | 12.5 (≈ 41.8 µM) | 21 | 12.5 (≈ 41.8 µM) | 18 | 25 (≈ 83.7 µM) | 19 | 25 (≈ 83.7 µM) | – | – | – | – | –
Cc1ccccc1N1C(=O)C(Cl)C12C(=O)Nc1c(Br)cc(Br)cc12 (stereo unspecified) | 19 | 6.25 (≈ 13.3 µM) | 17 | 12.5 (≈ 26.6 µM) | 23 | 6.25 (≈ 13.3 µM) | 24 | 12.5 (≈ 26.6 µM) | 23 | 6.25 (≈ 13.3 µM) | – | – | – | – | –
Cc1ccc(N2C(=O)C(Cl)C23C(=O)Nc2c(Br)cc(Br)cc23)cc1 (stereo unspecified) | 16 | 12.5 (≈ 26.6 µM) | – | – | 24 | 6.25 (≈ 13.3 µM) | 26 | 6.25 (≈ 13.3 µM) | 22 | 12.5 (≈ 26.6 µM) | – | – | – | inactive | –
CC1(C)S[C@@H]2[C@H](NC(=O)[C@H](N)c3ccc(O)cc3)C(=O)N2[C@H]1C(=O)O [AMOXICILLIN] | – | – | – | – | 29 | 6.25 (≈ 17.1 µM) | 30 | 6.25 (≈ 17.1 µM) | 25 | 6.25 (≈ 17.1 µM) | – | – | – | – | –
O=C1C(Cl)C2(C(=O)Nc3ccccc32)N1c1ccccc1[N+](=O)[O-] (stereo unspecified) | – | – | 17 | 12.5 (≈ 36.4 µM) | 17 | 12.5 (≈ 36.4 µM) | 19 | 25 (≈ 72.7 µM) | 21 | 12.5 (≈ 36.4 µM) | – | – | – | – | inactive
O=C1C(Cl)C2(C(=O)Nc3c(Br)cc(Br)cc32)N1c1ccccc1 (stereo unspecified) | 17 | 12.5 (≈ 27.4 µM) | 14 | 25 (≈ 54.8 µM) | 24 | 6.25 (≈ 13.7 µM) | 26 | 12.5 (≈ 27.4 µM) | 21 | 12.5 (≈ 27.4 µM) | – | – | – | – | –
O=C1C(Cl)C2(C(=O)Nc3c(Br)cc(Br)cc32)N1c1ccccc1[N+](=O)[O-] (stereo unspecified) | 19 | 6.25 (≈ 12.5 µM) | 14 | 25 (≈ 49.8 µM) | 27 | 6.25 (≈ 12.5 µM) | 27 | 6.25 (≈ 12.5 µM) | 21 | 6.25 (≈ 12.5 µM) | – | – | – | – | –
O=C1C(Cl)C2(C(=O)Nc3ccccc32)N1c1ccc([N+](=O)[O-])cc1 (stereo unspecified) | 25 | 6.25 (≈ 18.2 µM) | 24 | 6.25 (≈ 18.2 µM) | 19 | 25 (≈ 72.7 µM) | 17 | 25 (≈ 72.7 µM) | 20 | 25 (≈ 72.7 µM) | – | – | – | – | –
Cc1ccc(N2C(=O)C(Cl)C23C(=O)Nc2ccccc23)cc1 (stereo unspecified) | 16 | 12.5 (≈ 40 µM) | 22 | 6.25 (≈ 20 µM) | 19 | 25 (≈ 79.9 µM) | 17 | 25 (≈ 79.9 µM) | 20 | 25 (≈ 79.9 µM) | – | – | – | – | –
